Test results: ChEMBL document CHEMBL2203269, “Target-Activated Prodrugs (TAPs) for the Autoregulated Inhibition of MMP12” (ACS Med Chem Lett, 2012)
Activity calls are given as the source filed them.

Columns and labels:
[1] = target: T1, Interstitial collagenase (Homo sapiens) (UniProt P03956); assay: Activity at MMP1
T1 sequence (whole entry): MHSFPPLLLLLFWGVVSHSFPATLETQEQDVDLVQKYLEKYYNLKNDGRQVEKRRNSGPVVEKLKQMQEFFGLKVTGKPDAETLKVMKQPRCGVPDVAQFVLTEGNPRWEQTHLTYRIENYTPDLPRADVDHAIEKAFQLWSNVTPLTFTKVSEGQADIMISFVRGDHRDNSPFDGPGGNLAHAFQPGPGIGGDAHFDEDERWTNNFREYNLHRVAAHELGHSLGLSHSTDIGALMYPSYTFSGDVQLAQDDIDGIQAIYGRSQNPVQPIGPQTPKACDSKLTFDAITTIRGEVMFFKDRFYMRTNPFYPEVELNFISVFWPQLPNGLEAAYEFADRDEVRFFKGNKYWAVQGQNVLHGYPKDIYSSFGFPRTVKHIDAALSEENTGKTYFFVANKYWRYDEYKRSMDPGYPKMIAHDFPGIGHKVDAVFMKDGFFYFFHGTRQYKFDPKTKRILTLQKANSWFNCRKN

[2] = target: T2, Matrilysin (Homo sapiens) (UniProt P09237); assay: Activity at MMP7
T2 sequence (whole entry): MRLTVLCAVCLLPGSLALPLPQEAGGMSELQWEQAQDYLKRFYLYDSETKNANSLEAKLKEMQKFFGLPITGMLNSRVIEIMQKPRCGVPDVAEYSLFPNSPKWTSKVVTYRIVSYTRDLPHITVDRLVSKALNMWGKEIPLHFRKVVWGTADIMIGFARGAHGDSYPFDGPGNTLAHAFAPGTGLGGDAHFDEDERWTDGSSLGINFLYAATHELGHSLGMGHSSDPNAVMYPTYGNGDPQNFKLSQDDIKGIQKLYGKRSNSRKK

[3] = target: 72 kDa type IV collagenase (Homo sapiens) (UniProt P08253); assay: Activity at MMP2
72 kDa type IV collagenase (Homo sapiens), sequence (P08253 110-660 limits assumed): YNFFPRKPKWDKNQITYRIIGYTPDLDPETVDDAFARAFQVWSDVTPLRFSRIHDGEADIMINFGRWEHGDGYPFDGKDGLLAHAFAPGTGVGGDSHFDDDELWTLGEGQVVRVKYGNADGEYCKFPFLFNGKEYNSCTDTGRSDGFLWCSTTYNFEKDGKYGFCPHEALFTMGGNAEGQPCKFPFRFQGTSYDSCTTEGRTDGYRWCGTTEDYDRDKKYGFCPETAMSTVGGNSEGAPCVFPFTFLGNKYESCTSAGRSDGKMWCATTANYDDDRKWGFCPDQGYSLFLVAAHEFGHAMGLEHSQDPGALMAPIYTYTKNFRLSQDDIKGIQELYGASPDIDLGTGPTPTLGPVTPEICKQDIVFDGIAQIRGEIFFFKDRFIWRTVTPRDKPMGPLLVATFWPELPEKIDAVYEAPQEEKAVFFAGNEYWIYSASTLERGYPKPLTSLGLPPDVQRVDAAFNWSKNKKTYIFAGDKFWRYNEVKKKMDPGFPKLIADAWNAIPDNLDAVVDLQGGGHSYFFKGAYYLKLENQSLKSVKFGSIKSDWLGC

Measured: Activity

CC(C)C[C@H](NC(=O)CN(C(=O)[C@H](CC(C)C)NC(=O)[C@@H]1CCCN1C(=O)OCc1ccccc1)S(=O)(=O)c1ccc(-c2ccccc2)cc1)C(=O)N[C@@H](CCC(=O)O)C(=O)N[C@@H](CCC(=O)O)C(=O)N[C@@H](C)C(N)=O
active: [1] | [2] | [3]
